Columns and labels:
Format in all cases: cell-based, mouse
[1] = system: Atrogin-1; assay: Real time PCR of Atrogin-1 mRNA in differentiated C2C12 cells; settings: 400 μM Aspirin 24 hours, then 2 μM dexamethasone 24 hours, normalized to GAPDH, FIG. 3A
Procedure: (§1) As described above with reference to Example 1(2), C2C12 cells were completely differentiated into muscle cells, and 4 ml of a fresh culture medium including 400 μM of Aspirin (Sigma Aldrich) was added thereto, and then the cells were cultured for 24 hours. 2 μM of dexamethasone (Sigma Aldrich) was added to the cultured cells, and the cells were cultured for 24 hours. The culture medium was removed therefrom, and the cells were collected. A negative control group was not treated with acetylsalicylic acid and dexamethasone.
(§2) A Trizol reagent (Invitrogen) was added to the collected cells, and total RNA was separated therefrom according to manufacturer's protocols. Complementary DNA (cDNA) was synthesized from the separated total RNA by using a reverse transcriptase. Amounts of mRNA of Atrogin-1 and MuRF-1 were quantified using a real time PCR device (MyiQPCR instrument, BioRad) that is a device measuring SYBR Green. The results were normalized with respect to an amount of GAPDH mRNA. […]
(§3) Values obtained via amplification were normalized by GAPDH gene, and relative expression levels of mRNA of Atrogin-1 and MURF-1 were quantified. The quantified relative expression levels (arbitrary unit (AU)) of mRNA of Atrogin-1 and MURF-1 are illustrated in FIGS. 3A and 3B, respectively, […]

[2] = system: glucocorticoid receptor; assay: Immunoblotting of phosphorylated glucocorticoid receptor (pGR) in differentiated C2C12 cells; settings: 40, 400 or 4000 μM Aspirin pre-treatment 24 hours, then 2 μM dexamethasone 24 hours; as amount of Aspirin increases, FIG. 1
Procedure: First, C2C12 cell lines (mouse gastrocnemius muscle, ATCC® CRL-1772™) were seeded in a 60 mm dish in 10% FBS/DMEM and incubated at 37° C. in a 5% CO2 incubator. When the cells formed 70% confluent, the culture medium was replaced with 2% FBS/DMEM and the cells were cultured for 4 days to completely induce differentiation into muscle cells. C2C12 cell lines are mouse myoblast cell lines obtained by continuous culture of myoblast cells cultured from gastrocnemius muscle of C3H mice.
When C2C12 cells were completely differentiated into muscle cells, the culture medium was removed therefrom, and 4 ml of a fresh culture medium including 40 μM, 400 μM, or 4000 μM of Aspirin (Sigma Aldrich) was added thereto, and then the cells were cultured for 24 hours. 2 μM of dexamethasone (Sigma Aldrich) was added to the cultured cells and the cells were further cultured for 24 hours. A negative control group was not treated with acetylsalicylic acid and dexamethasone.
The culture medium was removed therefrom, and the cells were collected. Then, 500 μl of RIPA (20 mM Tris-HCl (pH 7.5), 150 mM NaCl, 1 mM Na2EDTA, 1 mM EGTA, 1% NP-40, 1% (w/v) sodium deoxycholate, 2.5 mM sodium pyrophosphate, 1 mM beta-glycerophosphate, 1 mM Na3VO4, and 1 μg/ml leupeptin) lysis buffer was added thereto. The cells were lysed to obtain lysates. […]

[3] = system: MuRF-1; assay: Real time PCR of MuRF-1 mRNA in differentiated C2C12 cells; settings: 400 μM Aspirin 24 hours, then 2 μM dexamethasone 24 hours, normalized to GAPDH, FIG. 3B
Procedure: as §1, §2, §3

**Q.** Which results are given for `CC(=O)Oc1ccccc1C(=O)O` [Aspirin, 2-(acetyloxy)benzoic acid]?
**A.** expression of mRNA of Atrogin-1 [1]: did not increase; amount of glucocorticoid receptor GR phosphorylated by dexamethasone [2]: decreases; expression of mRNA of MuRF1 [3]: did not increase

Reference: US9492464B2, “Composition for preventing or treating side effect of steroid in subject comprising acetylsalicylic acid and use thereof” (Samsung Electronics Co., Ltd., priority 2014, dated 2016)
